Measurements from PMC7038631 (Alzheimer's & dementia : the journal of the Alzheimer's …, 2019).
“Also recorded” adds a separate entry of the source.

Legend:
[1] = target: purified recombinant full-length 2N4R wild-type (WT) tau (Homo sapiens, UniProt P10636); assay: Surface plasmon resonance binding to immobilized WT tau; settings: read-out: Kd, binding to purified WT tau protein (SPR); steady-state, 25 °C, 1 nM to 5 μM
WT 2N4R tau monomer = assay: Single-molecule FRET; assay type: biochemical; settings: 5 μM, vs buffer or DMSO
purified WT tau proteins = purified WT tau proteins (Homo sapiens, UniProt P10636); assay: Heparin induced thioflavin-T; assay type: biochemical
[2] = target: tau preformed fibrils (PFF) (Homo sapiens, UniProt P10636); assay: ThT signal of tau preformed fibrils; assay type: biochemical; settings: DTT 5 mM
[3] = FRET control cells expressing free fluorophores; assay type: cell-based, human
[4] = test system: untransfected SH-SY5Y cells; settings: MK-886 0.5, 1 or 2 μM

purified WT tau proteins, sequence (P10636 1-441 isoform P10636-8): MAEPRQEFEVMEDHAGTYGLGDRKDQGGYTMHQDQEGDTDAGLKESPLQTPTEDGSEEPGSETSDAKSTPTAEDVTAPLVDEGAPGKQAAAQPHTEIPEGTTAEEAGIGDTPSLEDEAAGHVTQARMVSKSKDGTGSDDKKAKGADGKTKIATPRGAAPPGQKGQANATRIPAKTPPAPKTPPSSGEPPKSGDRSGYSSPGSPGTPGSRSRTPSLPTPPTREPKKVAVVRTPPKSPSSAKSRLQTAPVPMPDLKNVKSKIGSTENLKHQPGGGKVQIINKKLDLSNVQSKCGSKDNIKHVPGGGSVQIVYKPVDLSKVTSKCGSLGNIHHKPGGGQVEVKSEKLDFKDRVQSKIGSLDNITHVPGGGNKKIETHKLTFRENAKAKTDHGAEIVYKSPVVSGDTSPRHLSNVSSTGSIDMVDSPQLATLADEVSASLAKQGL
tau preformed fibrils (PFF), sequence (P10636 1-441 isoform P10636-8): as above
purified recombinant full-length 2N4R wild-type (WT) tau, sequence (P10636 1-441 isoform P10636-8): as above

## CC(C)c1ccc2c(c1)c(SC(C)(C)C)c(CC(C)(C)C(=O)O)n2Cc1ccc(Cl)cc1 [MK-886]
[1]
  Kd: 178 nM
WT 2N4R tau monomer
  smFRET change, N-terminal domain labeled tau construct: minor decrease in FRET
  smFRET change, PRR/MTBR labeled tau construct: substantial increase in FRET
Purified WT tau proteins
  Direct effect on ThT fluorescence: did not have a direct effect
Purified WT tau proteins; heparin 0.4 mg/ml, MK-886 0.5 and 5 μM
  Effect on lag phase of tau β-sheet fibril formation (ThT): reduces the lag phase; also recorded: shortens the lag phase
Purified WT tau proteins; no heparin
  Nucleation of tau fibril formation without heparin (ThT): unable to nucleate tau fibrillization; also recorded: did not act to nucleate
[2]
  Effect on ThT signal from tau PFF: did not reduce
[3]
  Action on cytosolic fluorophores (control FRET): not acting on the cytosolic fluorophores
[4]; UC-112 1 μM
  Rescue of cell cytotoxicity induced by UC-112: did not rescue
[4]; YM-155 1 μM
  Rescue of cell cytotoxicity induced by YM-155: did not rescue

## O=c1c(O)c(-c2ccc(O)c(O)c2)oc2c(O)c(O)cc(O)c12 [gossypetin]
[2]
  Effect on ThT signal from tau PFF: significant decrease
